Experimental data published in patent US3969530A, “4-Hydroxy-3,5-di-alkyl-phenyl-propionic acid composition suitable as lipid lowering and anti-diabetic agents” (Hoechst Aktiengesellschaft, priority 1972, dated 1976).

How the values were obtained:
serum lipid values = test: Reduction of serum lipid values in normolipemic rats (Table 1); assay type: in vivo, male rats; details: 8 doses; for Change in percentage of serum cholesterol, column A / Change in percentage of serum triglyceride, column A: A: referred to the initial value of the treated group; for Change in percentage of serum cholesterol, column B / Change in percentage of serum triglyceride, column B: B: referred to untreated control group
Experimental: 1. Male rats having a normal serum lipid content were being treated for eight days with different daily doses mentioned in Table 1. The values given in that Table stand for a change in the serum concentrations of certain lipid classes.
The doses were administered per os by means of an esophagal sound. Generally, prior to and after the treatment, blood samples were taken and the concentration of cholesterol in the serum was determined according to the method of Lauber and Richterich and that of triglycerides according to the method of Eggstein and Kreutz. In the examples of the following Table 1, the changes in the serum lipid values due to the treatment with the substances of the invention are defined as follows:
a. The changes in percent in the final value of the treated group, referred to the initial value of the treated group, the initial value being 100 per cent, and
b. the change in the final value of the treated group, referred to the final value of an accompanying untreated control group, the untreated group's value being defined as 100 %. Thus, the value given in columns A is the change in percentage referred to the initial value, the value given in columns B is the change in percentage of the treated group, referred to the untreated control group.

in vivo = details: mouse, po, male mice
[1] = test system: serum lipid concentration; test: Dietetic-medicamentous hyperlipemia (hypercholesteremia) of male rats (Table 2); assay type: in vivo; details: 100 mg/kg/day, 8 doses, esophagal sound; hyperlipemic diet
From the text: 2. Dietetic-medicamentous hypercholesteremia of male rats
All the animals were fed with a diet food containing 2% of cholesterol, 2% of sodium cholate, 0.3% of methyl-thio-uracil, 20% of coco fat and 44% of cane sugar. The serum lipid concentration of the animals treated with the cited compounds was compared to that of an untreated control group being on the same diet which causes the serum cholesteral concentration to rise within one week to about 10 times the initial value, that of the serum triglycerides to 3 times and that of the phospholipids in the serum to 4 times the initial value. The lipid phosphorus was determined according to the method of Messrs. Boehringer Mannheim W. Germany. At the same time as the diet was offered the cited compounds were administered once a day to groups of rats, each containing 10 animals, over a period of 8 days by means of an esophagal sound. The change in percentage in the serum lipid concentration as compared to the control group (diet without active substance) is indicated in Table 2.

blood sugar level [2] = test: Blood sugar level in alloxan-diabetic male rats; assay type: in vivo; details: 100 mg/kg/day per os, 8 days, 20 hours after the last administration, vs untreated group; insulin-substituted
Experimental: (§1) The hypoglycemic activity had been established as follows, the blood sugar level having been determined by means of an autoanalyzer:
1. On alloxan-diabetic male rats substituted with insulin before the beginning of the test, that were offered food ad libitum, 100 mg/kg/day of 4-hydroxy-3,5-di-t.-butyl-phenylpropionic acid n-octadecyl ester administered per os once a day during 8 successive days lowered the blood sugar level 20 hours after the last administration by -18% as compared with an untreated group.

blood sugar level [3] = test: Tolerance test with oral glucose in fasted male rats; assay type: in vivo
Experimental: as §1
2. In the tolerance test with glucose doses administered per os to male rats that had fasted for 22 hours and that were administered 19 and 3 hours before the glucose administration (1g/kg) per os 100 mg/kg of the test preparation, 4-hydroxy-3,5-di-t.-butyl-phenyl-propionic acid n-octadecyl ester caused a lowering of the blood sugar level by -21% 3 hours after being fed with glucose.

blood sugar level [4] = test: Blood sugar level in male rats fed fructose doses; assay type: in vivo; details: 100 mg/kg/day, 3 days pretreatment, 24 hours after the last administration; fructose doses per os
Experimental: as §1
In the case of male rats having been feed fructose doses per os and pretreated for 3 days with 100 mg/kg/day of the same compound, the blood sugar level was lowered by -17% 24 hours after the last administration.

Row | Structure (SMILES) | Change in percentage of serum cholesterol, column A (serum lipid values; 30 mg/kg/day p.o.) [%] | Change in percentage of serum triglyceride, column A (serum lipid values; 30 mg/kg/day p.o.) | Change in percentage of serum cholesterol, column B (serum lipid values; 30 mg/kg/day p.o.) [%] | Change in percentage of serum triglyceride, column B (serum lipid values; 30 mg/kg/day p.o.) [%] | LD50 (in vivo) [mg/kg] | Change in percentage of serum cholesterol referred to the untreated group [1] [%] | Change in percentage of serum triglyceride, column A (serum lipid values; 10 mg/kg/day p.o.) [%] | Change in percentage of serum triglyceride, column B (serum lipid values; 10 mg/kg/day p.o.) [%] | Change in percentage of serum triglyceride, column A (serum lipid values; 100 mg/kg/day p.o.) [%] | Change in percentage of serum cholesterol, column B (serum lipid values; 100 mg/kg/day p.o.) [%] | Change in percentage of serum triglyceride, column B (serum lipid values; 100 mg/kg/day p.o.) [%] | lowering of the blood sugar level (blood sugar level [2]) [%] | lowering of the blood sugar level (blood sugar level [3]; 100 mg/kg per os 19 and 3 hours before glucose (1g/kg), 3 hours after glucose, fasted 22 hours) [%] | lowering of the blood sugar level compared with phenformin (blood sugar level [3]; 100 mg/kg per os, comparison preparation phenformin) | lowering of the blood sugar level (blood sugar level [4]) [%] | Change in percentage of serum cholesterol, column A (serum lipid values; 100 mg/kg/day p.o.) [%]
1 | CCOC(=O)C(C)(C)Oc1ccc(Cl)cc1 [Clofibrat, reference compound] | -7 | +4% | -7 | -13 | 2000 to 2500 | 0 | – | – | – | – | – | – | – | – | – | –
2 | CC(C)(C)c1cc(CCC(=O)O)cc(C(C)(C)C)c1O [Example 2, 4-hydroxy-3,5-di-t.-butyl-phenyl-propionic acid] | – | -23% | – | -38 | – | – | -21 | -26 | -32 | -12 | -38 | – | – | – | – | –
3 | CCCCCCCCCCCCCCCCCCOC(=O)CCc1cc(C(C)(C)C)c(O)c(C(C)(C)C)c1 [Example 3, 4-hydroxy-3,5-di-t.-butyl-phenyl-propionic acid-n-octadecyl ester] | – | – | – | -25 | 8000 | – | – | – | -33 | – | -16 | -18 | -21 | in the same order of magnitude as that obtained with the comparison preparation phenformin | -17 | –
4 | COC(=O)CCc1cc(C(C)(C)C)c(O)c(C(C)(C)C)c1 [Example 5, 4-hydroxy-3,5-di-t.-butylphenyl-propionic acid methyl ester] | – | – | – | -42 | – | – | – | -3 | -60 | – | -71 | – | – | – | – | -3
5 | CCCCOC(=O)CCc1cc(C(C)(C)C)c(O)c(C(C)(C)C)c1 [Example 6, 4-hydroxy-3,5-di-t.-butylphenyl-propionic acid-n-butyl ester] | – | – | – | -27 | – | – | – | -17 | -54 | – | -58 | – | – | – | – | -10
6 | CC(C)(C)c1cc(CCC(=O)OCC(COC(=O)CCc2cc(C(C)(C)C)c(O)c(C(C)(C)C)c2)(COC(=O)CCc2cc(C(C)(C)C)c(O)c(C(C)(C)C)c2)COC(=O)CCc2cc(C(C)(C)C)c(O)c(C(C)(C)C)c2)cc(C(C)(C)C)c1O [Example 7, Tetra-(4-hydroxy-3,5-di-t.-butylphenyl-propionic acid)-pentaerythritol ester] | – | – | – | -27 | – | – | – | – | – | -7 | -17 | – | – | – | – | -5
